In US8461389B2, “Psycho-pharmaceuticals” (University College Dublin, National University of Ireland, …, priority 2008, dated 2013):

System: C57B16 mice
Experiment: Pre-pulse inhibition of the startle response
Assay type: in vivo
Settings: i.p. once daily for 7 days; FIG. 5
Description: An example of one way of testing for PPI: In the prepulse inhibition (PPI) procedure, the rodent is placed in a small chamber and exposed to a brief pulse of noise. The test is used to assess the subject's ability to “gate” or filter environmental information. In the acoustic (startle model) of sensorimotor gating, a weak acoustic stimulus (ie, the prepulse) decreases the reflexive flinching response (startle) produced by a second, more intense, stimulus (the pulse).
The main three parts of the procedure are prepulse, startle stimulus, and startle reflex. Different prepulse-to-pulse intervals, or lead intervals, are used: 30, 60, 120, 240 and 480 ms. Lead interval counts from the start of prepulse to the start of the pulse. With the interval exceeding 500 ms, prepulse facilitation, such as increased response, is most likely to follow. Burst of white noise is usually used as acoustic startle stimulus. Typical durations are 20 ms for prepulse and 40 ms for pulse. […] Startle response is measured in rodents using the so-called automated “startle chambers” or “stabilimeter chambers”, with detectors recording whole-body reaction. In humans, the movements of oculomotor muscles (“eye-blink reflex” or “eye-blink response” assessed using electromyographic recording of orbicularis oculi muscle and by oculography) could be used as a measure. […]

## CCCCSc1ccc(C(SCCN(C)C)c2ccccc2)cc1 (stereo not shown) [Captodiamine, 2-[(4-butylsulfanylphenyl)-phenyl-methyl]sulfanyl-N,N-dimethyl-ethanamin]
  pre-pulse inhibition of startle: no effect
